# According to patent US20120190613A1, “ECHINOCANDIN DERIVATIVES” (priority 2009, published 2012):
# Marks after values point to notes of the source that are not given here.
# Tests used:
# [1] = tested on: C. albicans 104 ATCC 90028; test: MIC by broth microdilution against C. albicans; format: cell-based; conditions: 48 hr
# Protocol: (§1) MIC values (μg/mL) of echinocandin class compounds of the invention against various Candida and Aspergillus species were obtained as follows. Test organisms were obtained from the American Type Culture Collection (Manassas, Va.). The isolates were maintained at −80 ° C., then thawed and sub-cultured one day prior to testing (seven days for Aspergillus strains).
# (§2) The mouse serum was heat-inactivated for 30 minutes at 56° C., and filtered through a 0.2 μm low protein binding filter unit prior to use.
# (§3) MIC values were determined using broth microdilution. The wells of the daughter plates ultimately contained 180 μL of RPMI-1640 medium with and without mouse serum, 10 μL of drug solution, and 10 μL of yeast or fungal inoculum.
# (§4) Prior to susceptibility testing, fungal isolates were removed from frozen storage, thawed at room temperature, and subcultured to Potato Dextrose Agar. The Candida strains were incubated overnight at 35° C. and the Aspergillus strains for 7 days at 25° C. Yeast colonies were inoculated into sterile saline and adjusted to the turbidity of a 0.5 McFarland standard. Inoculums from Aspergillus strains were prepared by washing the surface of an agar slant with 1 mL of sterile saline containing 0.05% of Tween 20. The resulting colloidial suspensions were adjusted to an optical density of 0.09 to 0.11 at λ 625 nm.
# (§5) Both the yeast and filamentous fungus suspensions were further diluted 1:100 in RPMI-1640 medium and dispensed into sterile reservoirs and used to inoculate the daughter plates. 10 μL of standardized inoculum was delivered into each well. This yielded a final cell concentration in the daughter plates of approximately 2.5×10^3 colony-forming units/mL. Plates were incubated at 35° C. for approximately 48 hr.
# (§6) Following incubation, microplates were viewed from the bottom using a plate viewer.
# [2] = tested on: C. parapsilosis 630 ATCC 90018; test: MIC by broth microdilution against C. parapsilosis; format: cell-based; conditions: 48 hr
# Protocol: as §1, §2, §3, §4, §5, §6
# [3] = tested on: A. flavus 626 ATCC 64025; test: MIC by broth microdilution against A. flavus; format: cell-based; conditions: 48 hr, growth reduction of 50%
# Protocol: as §1, §2, §3, §4, §5, §6
# [4] = tested on: C. albicans R303; test: Mouse candidiasis infection model, C. albicans density in kidneys; format: in vivo, female CD-1 mice; conditions: for Difference from 24-hr control / Mean log10 CFU/kidneys (±SD) / Difference from 24-h control / Mean log10 CFU/kidneys (±SEM): kidneys at 24 hr
# Protocol: The objective of these studies was to evaluate the efficacy of test compounds in the mouse candidiasis infection model.
# The strain, C. albicans R303 was transferred from frozen storage onto Sabauroud dextrose agar (SDA) plates and grown for ˜24 hr at 35° C. The inoculum was prepared by transferring colonies from the plate to phosphate buffered saline (PBS) and the concentration adjusted to 10^6 CFU/mL with the aid of a spectrophotometer. The stock was diluted 1:9 to prepare the inoculum. Prior to each run the concentration was verified using the dilution plate count method.
# The female CD-1 mice used in this study were obtained from Charles River Laboratories, Portage, MI. The animals were approximately seven-weeks-old at the start of the study and weighed about 16-26 g.
# In one approach, mice were made neutropenic with IP injections of cyclophosphamide (150 mg/kg in 10 mL/kg) at 4 and 1 day before inoculation. Each animal was inoculated with the appropriate concentration by injecting 0.1 mL of inoculum into a tail vein. The test compounds were administered IP at 2 hr after infection.
# The kidneys were collected from four mice in control group 1 (untreated) at 2 hr after infection, and from the remaining mice in the study at 24 hr after infection. Kidneys were removed aseptically from each mouse and were combined in a sterile tube. An aliquot (2 mL) of sterile PBS was added to each tube and the contents homogenized with a tissue homogenizer (Polytron 3100). Serial dilutions of the tissue homogenates were conducted and 0.1 mL aliquots were spread on SDA plates and the plates incubated at 35° C. overnight. The CFU/kidneys were determined from colony counts. Data were analyzed using one-way ANOVA with the Tukey-Kramer Multiple Comparisons Test (GraphPad InStat version 3.06, GraphPad Software, San Diego, Calif.).
# Treatments were administered at 2 hr after infection with 2.1×10^5 CFU/mL of the organism. Data are the means of four mice.
# Treatments were administered at 2 hr after infection with 6.4×10^5 CFU/mL of the organism. Data are the means of four mice.
# Treatments were administered at 2 hr after infection with 3.8×10^5 CFU/mL of the organism. Data are the means of four mice.
# Treatments were administered at 2 hr after infection with 3.8×10^5 CFU/rnL of the organism. Data are the means of four mice.
# [5] = Second run, 5 mg/kg IP 2 hr after infection
# [6] = Fourth run, 0.5 mg/kg IP 2 hr after infection
# [7] = Fourth run, 1.5 mg/kg IP 2 hr after infection
# [8] = Fourth run, 4.5 mg/kg IP 2 hr after infection
# [9] = Third run, 0.5 mg/kg IP 2 hr after infection
# [10] = Third run, 1.5 mg/kg IP 2 hr after infection
# [11] = Third run, 4.5 mg/kg IP 2 hr after infection
smiles,measurement,setting,value
CCC(C)CC(C)CCCCCCCCC(=O)NC1CC(O)C(NCCNC(=O)CCCCCCCOCCOCCOCCOCCOCCOCCOCCOC)NC(=O)C2C(O)CCN2C(=O)C(C(O)CCN)NC(=O)C(C(O)C(O)c2ccc(O)cc2)NC(=O)C2CC(O)CN2C(=O)C(C(C)O)NC1=O (stereo not drawn) [Compound 3],MIC,[1]; 0% mouse serum,2 µg/mL
same,MIC,[1]; 50% mouse serum,>16 µg/mL
same,MIC,[2]; 0% mouse serum,>16 µg/mL
same,MIC,[2]; 50% mouse serum,>16 µg/mL
same,MIC,[3]; 0% mouse serum,2 µg/mL
same,MIC,[3]; 50% mouse serum,8 µg/mL
CCCCCOc1ccc(-c2ccc(-c3ccc(C(=O)NC4CC(O)C(OCCOCCOCCOCCOCCOCCOCCOC)NC(=O)C5C(O)C(C)CN5C(=O)C(C(C)O)NC(=O)C(C(O)C(O)c5ccc(O)cc5)NC(=O)C5CC(O)CN5C(=O)C(C(C)O)NC4=O)cc3)cc2)cc1 (stereo not drawn) [Compound 6],MIC,[1]; 0% mouse serum,2 µg/mL
same,MIC,[1]; 50% mouse serum,8 µg/mL
same,MIC,[2]; 0% mouse serum,>16 µg/mL
same,MIC,[2]; 50% mouse serum,>16 µg/mL
same,MIC,[3]; 0% mouse serum,0.125 µg/mL
same,MIC,[3]; 50% mouse serum,0.5 µg/mL
CCC(C)CC(C)CCCCCCCCC(=O)NC1CC(O)C(NCCNC(=O)OCCOCCOCCOC)NC(=O)C2C(O)CCN2C(=O)C(C(O)CCN)NC(=O)C(C(O)C(O)c2ccc(O)cc2)NC(=O)C2CC(O)CN2C(=O)C(C(C)O)NC1=O (stereo not drawn) [Compound 12],Difference from 24-hr control,[4]; [5],−0.78 ns log10 CFU/kidneys
same,Mean log10 CFU/kidneys (±SD),[4]; [5],4.42 ± 0.14 log10 CFU/kidneys
CCC(C)CC(C)CCCCCCCCC(=O)NC1CC(O)C(NCCNCCOC)NC(=O)C2C(O)CCN2C(=O)C(C(O)CCN)NC(=O)C(C(O)C(O)c2ccc(O)cc2)NC(=O)C2CC(O)CN2C(=O)C(C(C)O)NC1=O (stereo not drawn) [Compound 13],Difference from 24-hr control,[4]; [5],−4.55*** log10 CFU/kidneys
same,Mean log10 CFU/kidneys (±SD),[4]; [5],0.65 ± 0.75 log10 CFU/kidneys
CCC(C)CC(C)CCCCCCCCC(=O)NC1CC(O)C(NCCN)NC(=O)C2C(O)CCN2C(=O)C(C(O)CCNC(=O)OCCOC)NC(=O)C(C(O)C(O)c2ccc(O)cc2)NC(=O)C2CC(O)CN2C(=O)C(C(C)O)NC1=O (stereo not drawn) [Compound 14],Difference from 24-hr control,[4]; [5],−1.13 ns log10 CFU/kidneys
same,Mean log10 CFU/kidneys (±SD),[4]; [5],4.07 ± 0.17 log10 CFU/kidneys
CCC(C)CC(C)CCCCCCCCC(=O)NC1CC(O)C(NCCN)NC(=O)C2C(O)CCN2C(=O)C(C(O)CCNC(=O)OCCOCCOCCOC)NC(=O)C(C(O)C(O)c2ccc(O)cc2)NC(=O)C2CC(O)CN2C(=O)C(C(C)O)NC1=O (stereo not drawn) [Compound 15],Difference from 24-hr control,[4]; [5],−0.45 ns log10 CFU/kidneys
same,Mean log10 CFU/kidneys (±SD),[4]; [5],4.75 ± 0.20 log10 CFU/kidneys
CCC(C)CC(C)CCCCCCCCC(=O)NC1CC(O)C(NCCOCCOCCOCCOC)NC(=O)C2C(O)CCN2C(=O)C(C(O)CCN)NC(=O)C(C(O)C(O)c2ccc(O)cc2)NC(=O)C2CC(O)CN2C(=O)C(C(C)O)NC1=O (stereo not drawn) [Compound 16],Difference from 24-h control,[4]; [6],−0.16 ns log10 CFU/kidneys
same,Mean log10 CFU/kidneys (±SEM),[4]; [6],5.05 ± 0.12 log10 CFU/kidneys
same,Difference from 24-h control,[4]; [7],−0.04 ns log10 CFU/kidneys
same,Mean log10 CFU/kidneys (±SEM),[4]; [7],5.16 ± 0.03 log10 CFU/kidneys
same,Difference from 24-h control,[4]; [8],−0.42 ns log10 CFU/kidneys
same,Mean log10 CFU/kidneys (±SEM),[4]; [8],4.78 ± 0.18 log10 CFU/kidneys
same,Effect on density of C. albicans in the kidneys,"[4]; Fourth run, all dose levels (0.5, 1.5, 4.5 mg/kg)",ineffective
CCC(C)CC(C)CCCCCCCCC(=O)NC1CC(O)C(NCCOC)NC(=O)C2C(O)CCN2C(=O)C(C(O)CCN)NC(=O)C(C(O)C(O)c2ccc(O)cc2)NC(=O)C2CC(O)CN2C(=O)C(C(C)O)NC1=O (stereo not drawn) [Compound 17],Effect on density of C. albicans in the kidneys,"[4]; Fourth run, 0.5 mg/kg",not
same,Difference from 24-h control,[4]; [6],−0.87 ns log10 CFU/kidneys
same,Mean log10 CFU/kidneys (±SEM),[4]; [6],4.33 ± 0.14 log10 CFU/kidneys
same,Difference from 24-h control,[4]; [7],−2.09*** log10 CFU/kidneys
same,Mean log10 CFU/kidneys (±SEM),[4]; [7],3.11 ± 0.14 log10 CFU/kidneys
same,Difference from 24-h control,[4]; [8],−4.25*** log10 CFU/kidneys
same,Mean log10 CFU/kidneys (±SEM),[4]; [8],0.95 ± 0.55 log10 CFU/kidneys
same,Effect on density of C. albicans in the kidneys,"[4]; Fourth run, 4.5 and 1.5 mg/kg",significantly reduced the density
CCCCCOc1ccc(-c2ccc(-c3ccc(C(=O)NC4CC(O)C(OCCOC)NC(=O)C5C(O)C(C)CN5C(=O)C(C(C)O)NC(=O)C(C(O)C(O)c5ccc(O)cc5)NC(=O)C5CC(O)CN5C(=O)C(C(C)O)NC4=O)cc3)cc2)cc1 (stereo not drawn) [Compound 18],Difference from 24-hr control,[4]; [5],−3.44*** log10 CFU/kidneys
same,Mean log10 CFU/kidneys (±SD),[4]; [5],1.76 ± 0.44 log10 CFU/kidneys
CCCCCOc1ccc(-c2ccc(-c3ccc(C(=O)NC4CC(O)C(OCCOCCOC)NC(=O)C5C(O)C(C)CN5C(=O)C(C(C)O)NC(=O)C(C(O)C(O)c5ccc(O)cc5)NC(=O)C5CC(O)CN5C(=O)C(C(C)O)NC4=O)cc3)cc2)cc1 (stereo not drawn) [Compound 19],Difference from 24-hr control,[4]; [5],−3.49*** log10 CFU/kidneys
same,Mean log10 CFU/kidneys (±SD),[4]; [5],1.71 ± 0.35 log10 CFU/kidneys
same,Difference from 24-hr control,[4]; [9],−0.03 ns log10 CFU/kidneys
same,Mean log10 CFU/kidneys (±SEM),[4]; [9],4.84 ± 0.26 log10 CFU/kidneys
same,Difference from 24-hr control,[4]; [10],−2.06*** log10 CFU/kidneys
same,Mean log10 CFU/kidneys (±SEM),[4]; [10],2.82 ± 0.10 log10 CFU/kidneys
same,Difference from 24-hr control,[4]; [11],−3.82*** log10 CFU/kidneys
same,Mean log10 CFU/kidneys (±SEM),[4]; [11],1.05 ± 0.36 log10 CFU/kidneys
CCCCCOc1ccc(-c2ccc(-c3ccc(C(=O)NC4CC(O)C(OCCOCCOCCOC)NC(=O)C5C(O)C(C)CN5C(=O)C(C(C)O)NC(=O)C(C(O)C(O)c5ccc(O)cc5)NC(=O)C5CC(O)CN5C(=O)C(C(C)O)NC4=O)cc3)cc2)cc1 (stereo not drawn) [Compound 20],Difference from 24-hr control,[4]; [5],−3.27*** log10 CFU/kidneys
same,Mean log10 CFU/kidneys (±SD),[4]; [5],1.93 ± 0.44 log10 CFU/kidneys
CCCCCOc1ccc(-c2ccc(-c3ccc(C(=O)NC4CC(O)C(OCCOCCO)NC(=O)C5C(O)C(C)CN5C(=O)C(C(C)O)NC(=O)C(C(O)C(O)c5ccc(O)cc5)NC(=O)C5CC(O)CN5C(=O)C(C(C)O)NC4=O)cc3)cc2)cc1 (stereo not drawn) [Compound 21],Difference from 24-hr control,[4]; [9],−1.53** log10 CFU/kidneys
same,Mean log10 CFU/kidneys (±SEM),[4]; [9],3.35 ± 0.08 log10 CFU/kidneys
same,Difference from 24-hr control,[4]; [10],−2.62*** log10 CFU/kidneys
same,Mean log10 CFU/kidneys (±SEM),[4]; [10],2.26 ± 0.12 log10 CFU/kidneys
same,Difference from 24-hr control,[4]; [11],−4.22*** log10 CFU/kidneys
same,Mean log10 CFU/kidneys (±SEM),[4]; [11],0.65 ± 0.38 log10 CFU/kidneys
same,Effect on density of C. albicans in the kidneys compared to the infected controls,"[4]; Third run, all dose levels (0.5, 1.5, 4.5 mg/kg)",significantly reduced the density
